Data on 39 compounds can be found in US7759337B2, “Phthalazine compounds and methods of use” (Amgen Inc., priority 2005, dated 2010).

SMILES strings stand for the structures. Some results are limits rather than exact numbers.

In this assay the test system is production of TNF by monocytes activated with bacterial lipopolysaccharide (LPS). As to the kind of experiment: Lipopolysaccharide-activated monocyte TNF production assay. The note with it: Homo sapiens; whole blood monocyte assay (LPS induced TNF release). In kind it is cell-based. The method, boiled down:
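Adherent human PBMC-derived monocytes preincubated 60 min with nine two-fold compound dilutions, then stimulated with E. coli K532 LPS (30 ng/mL in the added medium) for 4 h at 37 °C. Supernatant TNF measured by sandwich ELISA; IC50 is the compound concentration halving TNF production, from second-order polynomial fits.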
A word on the IC50: it is the midpoint of a concentration-inhibition curve. For the compound `Cc1ccc(C(=O)NC2CC2)cc1-c1ccc2c(N3CCC(C(N)=O)CC3)nncc2c1` [Example 114, 1-(6-{5-[(cyclopropylamino)carbonyl]-2-methylphenyl}phthalazin-1-yl)piperidine-4-carboxamide], the IC50 was no more than 5 µM.

For the compound `CC(=O)N1CCN(c2nncc3cc(-c4cc(C(=O)N(C(C)=O)C5CC5)ccc4C)ccc23)CC1` [Example 66, N-acetyl-3-(1-(4-acetylpiperazin-1-yl)phthalazin-6-yl)-N-cyclopropyl-4-methylbenzamide], the IC50 is no more than 5 µM.

As for `Cc1ccc(C(=O)NC2CC2)cc1-c1ccc2c(N3C[C@@H]4C[C@H]3CN4C(=O)OC(C)(C)C)nncc2c1` [Example 126, tert-butyl (1S,4S)-5-(6-{5-[(cyclopropylamino)carbonyl]-2-methylphenyl}phthalazin-1-yl)-2,5-diazabicyclo[2.2.1]heptane-2-carboxylate], the IC50 was no more than 5 µM.

`Cc1ccc(C(=O)NC2CC2)cc1-c1ccc2c(-c3c[nH]c(=O)cc3C)nncc2c1` [Example 287, N-cyclopropyl-4-methyl-3-[1-(4-methyl-6-oxo-1,6-dihydropyridin-3-yl)phthalazin-6-yl]benzamide] had an IC50 of no more than 5 µM. To `Cc1ccc(C(=O)NC2CC2)cc1-c1ccc2c(N3C[C@@H](C)OC[C@H]3C)nncc2c1` [Example 174, N-cyclopropyl-3-{1-[(2R,5R)-2,5-dimethylmorpholin-4-yl]phthalazin-6-yl}-4-methylbenzamide] belongs no more than 5 µM; to `Cc1ccc(C(=O)N(C)C)cc1-c1ccc2c(N3CCOCC3)nncc2c1` [Example 265, N,N,4-trimethyl-3-(1-morpholin-4-ylphthalazin-6-yl)benzamide], no more than 5 µM; to `Cc1ccc(C(N)=O)cc1-c1ccc2c(N3[C@H](C)CC[C@H]3C)nncc2c1` [Example 394, 3-{1-[(2R,5R)-2,5-dimethylpyrrolidin-1-yl]phthalazin-6-yl}-4-methylbenzamide], no more than 5 µM.

In turn, `Cc1ccc(C(N)=O)cc1-c1ccc2c(-c3ccc(F)cc3C)nncc2c1` [Example 217, 3-[1-(4-fluoro-2-methylphenyl)phthalazin-6-yl]-4-methylbenzamide] displayed an IC50 of no more than 5 µM. To `Cc1ccc(-c2nncc3cc(-c4cc(C(=O)NC5CC5)ccc4C)ccc23)c(Cl)n1` [Example 212, 3-[1-(2-chloro-6-methylpyridin-3-yl)phthalazin-6-yl]-N-cyclopropyl-4-methylbenzamide] belongs no more than 5 µM; to `Cc1ccc(C(=O)NC2CC2)cc1-c1ccc2c(N3CCOC[C@@H]3C)nncc2c1` [Example 178, N-cyclopropyl-4-methyl-3-{1-[(3S)-3-methylmorpholin-4-yl]phthalazin-6-yl}benzamide], no more than 5 µM; to `Cc1ccc(C(=O)NC2CC2)cc1-c1ccc2c(N(C)C(C)C)nncc2c1` [Example 290, N-cyclopropyl-3-{1-[isopropyl(methyl)amino]phthalazin-6-yl}-4-methylbenzamide], no more than 5 µM.

Compound `CSc1ccc(-c2nncc3cc(-c4cc(C(N)=O)ccc4C)ccc23)c(C)c1` [Example 260, 4-methyl-3-{1-[2-methyl-4-(methylsulfanyl)phenyl]phthalazin-6-yl}benzamide] gave an IC50 of no more than 5 µM.

As to `Cc1ccc(C(=O)NC2CC2)cc1-c1ccc2c(N3[C@H](C)CC[C@H]3C)nncc2c1` [Example 395, N-cyclopropyl-3-{1-[(2R,5R)-2,5-dimethylpyrrolidin-1-yl]phthalazin-6-yl}-4-methylbenzamide], the IC50 was no more than 5 µM. With `Cc1ccc(C(=O)NC2CC2)cc1-c1ccc2c(C(=O)NC(C)C)nncc2c1` [Example 70, 6-{5-[(Cyclopropylamino)carbonyl]-2-methylphenyl}-N-isopropylphthalazine-1-carboxamide], the IC50 was no more than 5 µM. Compound `Cc1ccc(C(=O)NC2CC2)cc1-c1ccc2c(-c3ccc(F)cc3C)nncc2c1` [Example 286, N-cyclopropyl-3-[1-(4-fluoro-2-methylphenyl)phthalazin-6-yl]-4-methylbenzamide] displayed an IC50 of no more than 5 µM. The compound `Cc1ccc(C(N)=O)cc1-c1ccc2c(N[C@H](C)CO)nncc2c1` [Example 185, 3-(1-{[(1R)-2-hydroxy-1-methylethyl]amino}phthalazin-6-yl)-4-methylbenzamide] registered an IC50 of no more than 5 µM. As to `NC(=O)c1ccc(F)c(-c2ccc3c(N4CCOCC4)nncc3c2)c1` [Example 177, 4-fluoro-3-(1-morpholin-4-ylphthalazin-6-yl)benzamide], the concentration for half-maximal inhibition (IC50) is no more than 5 µM. In turn, `COc1ccccc1Oc1nncc2cc(-c3cc(C(N)=O)ccc3C)ccc12` [Example 306, 3-[1-(2-methoxyphenoxy)phthalazin-6-yl]-4-methylbenzamide] gave an IC50 of no more than 5 µM. The compound `Cc1ccccc1-c1nncc2cc(Oc3ccc(F)cc3)ccc12` [Example 340, 6-(4-fluorophenoxy)-1-(2-methylphenyl)phthalazine] displayed an IC50 of no more than 5 µM. Turning to `Cc1ccc(C(=O)NC2CC2)cc1-c1ccc2c(N3CCN(C(=O)NCc4ccc(F)cc4)CC3)nncc2c1` [Example 139, 4-(6-{5-[(cyclopropylamino)carbonyl]-2-methylphenyl}phthalazin-1-yl)-N-(4-fluorobenzyl)piperazine-1-carboxamide], the IC50 was no more than 5 µM. `COCCNc1nncc2cc(-c3cc(C(N)=O)ccc3C)ccc12` [Example 189, 3-{1-[(2-methoxyethyl)amino]phthalazin-6-yl}-4-methylbenzamide] came in with an IC50 of no more than 5 µM. Then `Cc1ccc(-c2nncc3cc(-c4cc(C(=O)NC5CC5)ccc4C)ccc23)c(C)c1` [Example 18, N-cyclopropyl-3-[1-(2,4-dimethylphenyl)phthalazin-6-yl]-4-methylbenzamide], with no more than 5 µM; and `Cc1ccc(C(=O)NC2CC2)cc1-c1ccc2c(N3C[C@@H]4C[C@H]3CN4C(C)C)nncc2c1` [Example 144, N-cyclopropyl-3-{1-[(1S,4S)-5-isopropyl-2,5-diazabicyclo[2.2.1]hept-2-yl]phthalazin-6-yl}-4-methylbenzamide], with no more than 5 µM; and `Cc1ccc(C(=O)NC2CC2)cc1-c1ccc2c(-c3ccccc3C(N)=O)nncc2c1` [Example 98, 3-(1-(2-(aminocarbonyl)phenyl)-6-phthalazinyl)-N-cyclopropyl-4-methylbenzamide], with no more than 5 µM. `Cc1ccccc1-c1ccc2c(-c3ccccc3C)nncc2c1` [Example 386, 1,6-bis(2-methylphenyl)phthalazine] had an IC50 of no more than 5 µM. Consider `CC[C@@H](C)Nc1nncc2cc(-c3c(C)ccc4c(NC)noc34)ccc12` [Example 366, 6-[6-methyl-3-(methylamino)-1,2-benzisoxazol-7-yl]-N-[(1R)-1-methylpropyl]phthalazin-1-amine], for which the IC50 is no more than 5 µM. To `Cc1ccc(C(N)=O)cc1-c1ccc2c(Oc3ccccc3)nncc2c1` [Example 406, 4-methyl-3-(1-phenoxyphthalazin-6-yl)benzamide] belongs no more than 5 µM. The compound `Cc1ccc(C(N)=O)cc1-c1ccc2c(N3CCNC[C@H]3C)nncc2c1` [Example 143, 4-methyl-3-{1-[(2R)-2-methylpiperazin-1-yl]phthalazin-6-yl}benzamide] displayed an IC50 of no more than 5 µM. Then `COc1ncccc1-c1nncc2cc(Oc3ccc(F)cc3)ccc12` [Example 349, 6-(4-fluorophenoxy)-1-(2-methoxypyridin-3-yl)phthalazine], with no more than 5 µM.

With `Cc1ccc(C(=O)NC2CC2)cc1-c1ccc2c(N3CCN4C(=O)CC[C@@H]4C3)nncc2c1` [Example 267, 3-{1-[(8aR)-6-oxohexahydropyrrolo[1,2-a]pyrazin-2(1H)-yl]phthalazin-6-yl}-N-cyclopropyl-4-methylbenzamide], the IC50 is no more than 5 µM.

`Cc1ccc(C(=O)NC2CC2)cc1-c1ccc2c(N3C[C@@H]4C[C@H]3CN4)nncc2c1` [Example 125, N-cyclopropyl-3-{1-[(1S,4S)-2,5-diazabicyclo[2.2.1]hept-2-yl]phthalazin-6-yl}-4-methylbenzamide] gave an IC50 of no more than 5 µM. To `COc1ncccc1-c1nncc2cc(-c3cc(C(=O)NC4CC4)ccc3C)ccc12` [Example 230, N-cyclopropyl-3-[1-(2-methoxypyridin-3-yl)phthalazin-6-yl]-4-methylbenzamide] belongs no more than 5 µM; to `CCNC(=O)c1ccc(C)c(-c2ccc3c(C(C)C)nncc3c2)c1` [Example 363, N-ethyl-3-(1-isopropylphthalazin-6-yl)-4-methylbenzamide], no more than 5 µM. `Cc1ccc(-c2nncc3cc(-c4cc(C(=O)NC5CC5)ccc4C)ccc23)c(Cl)c1` [Example 235, 3-[1-(2-chloro-4-methylphenyl)phthalazin-6-yl]-N-cyclopropyl-4-methylbenzamide]: the IC50 was no more than 5 µM. To `Cc1ccc(C(=O)NC2CC2)cc1-c1ccc2c(N3CCCOCC3)nncc2c1` [Example 266, N-cyclopropyl-4-methyl-3-[1-(1,4-oxazepan-4-yl)phthalazin-6-yl]benzamide] belongs no more than 5 µM. Then `Cc1ccc(S(=O)(=O)NC2CC2)cc1-c1ccc2c(NC(C)C)nncc2c1` [Example 359, N-cyclopropyl-3-[1-(isopropylamino)phthalazin-6-yl]-4-methylbenzenesulfonamide], with no more than 5 µM; and `Cc1ccc([N+](=O)[O-])cc1-c1ccc2c(N3CCOCC3)nncc2c1` [Example 137, 6-(2-methyl-5-nitrophenyl)-1-morpholin-4-ylphthalazine], with no more than 5 µM; and `CCOC(=O)N1CCN(c2nncc3cc(-c4cc(C(=O)NC5CC5)ccc4C)ccc23)[C@@H](C)C1` [Example 379, ethyl(3S)-4-(6-{5-[(cyclopropylamino)carbonyl]-2-methylphenyl}phthalazin-1-yl)-3-methylpiperazine-1-carboxylate], with no more than 5 µM.

`COc1cc(-c2nncc3cc(-c4cc(C(N)=O)ccc4C)ccc23)c(C)cn1` [Example 252, 3-[1-(2-methoxy-5-methylpyridin-4-yl)phthalazin-6-yl]-4-methylbenzamide]: the IC50 was no more than 5 µM.
